Laboratory results from article PMC9303312, “Balancing Histone Deacetylase (HDAC) Inhibition and Drug‐likeness: Biological and Physicochemical Evaluation of Class I Selective HDAC Inhibitors” (Chemmedchem, 2022).
≈ marks a conversion by molar mass, not a printed value. Read-outs that look alike come from different tables or passages of the source.

Assays:
HDAC3/NcoR2 = HDAC3/NcoR2 (Homo sapiens, UniProt O15379); assay: In vitro HDAC inhibition preincubation assay (ZMAL substrate)
[1] = Solubility in PBS buffer by OECD flask method with HPLC quantification; assay type: physicochemical
HDAC2 [2] = molecular target: T1, HDAC2 (Homo sapiens, UniProt Q92769); assay: In vitro HDAC inhibition preincubation assay (ZMAL substrate)
T1 sequence (Q92769 whole entry): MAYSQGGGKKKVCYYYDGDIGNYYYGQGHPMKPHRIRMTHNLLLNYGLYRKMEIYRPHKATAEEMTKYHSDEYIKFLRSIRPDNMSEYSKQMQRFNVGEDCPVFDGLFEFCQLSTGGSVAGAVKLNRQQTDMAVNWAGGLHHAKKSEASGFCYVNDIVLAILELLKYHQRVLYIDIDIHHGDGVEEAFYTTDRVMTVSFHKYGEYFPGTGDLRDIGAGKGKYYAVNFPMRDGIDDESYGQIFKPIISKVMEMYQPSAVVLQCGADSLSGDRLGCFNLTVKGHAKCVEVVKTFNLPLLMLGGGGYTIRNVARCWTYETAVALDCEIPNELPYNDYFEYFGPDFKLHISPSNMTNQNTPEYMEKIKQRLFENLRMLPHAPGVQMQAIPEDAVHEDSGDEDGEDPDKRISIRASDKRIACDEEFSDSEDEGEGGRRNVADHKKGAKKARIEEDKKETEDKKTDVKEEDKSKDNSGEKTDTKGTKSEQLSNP

human recombinant HDAC6 = molecular target: T2, human recombinant HDAC6 (Homo sapiens, UniProt Q9UBN7); assay: as above
T2 sequence (Q9UBN7 1-1215): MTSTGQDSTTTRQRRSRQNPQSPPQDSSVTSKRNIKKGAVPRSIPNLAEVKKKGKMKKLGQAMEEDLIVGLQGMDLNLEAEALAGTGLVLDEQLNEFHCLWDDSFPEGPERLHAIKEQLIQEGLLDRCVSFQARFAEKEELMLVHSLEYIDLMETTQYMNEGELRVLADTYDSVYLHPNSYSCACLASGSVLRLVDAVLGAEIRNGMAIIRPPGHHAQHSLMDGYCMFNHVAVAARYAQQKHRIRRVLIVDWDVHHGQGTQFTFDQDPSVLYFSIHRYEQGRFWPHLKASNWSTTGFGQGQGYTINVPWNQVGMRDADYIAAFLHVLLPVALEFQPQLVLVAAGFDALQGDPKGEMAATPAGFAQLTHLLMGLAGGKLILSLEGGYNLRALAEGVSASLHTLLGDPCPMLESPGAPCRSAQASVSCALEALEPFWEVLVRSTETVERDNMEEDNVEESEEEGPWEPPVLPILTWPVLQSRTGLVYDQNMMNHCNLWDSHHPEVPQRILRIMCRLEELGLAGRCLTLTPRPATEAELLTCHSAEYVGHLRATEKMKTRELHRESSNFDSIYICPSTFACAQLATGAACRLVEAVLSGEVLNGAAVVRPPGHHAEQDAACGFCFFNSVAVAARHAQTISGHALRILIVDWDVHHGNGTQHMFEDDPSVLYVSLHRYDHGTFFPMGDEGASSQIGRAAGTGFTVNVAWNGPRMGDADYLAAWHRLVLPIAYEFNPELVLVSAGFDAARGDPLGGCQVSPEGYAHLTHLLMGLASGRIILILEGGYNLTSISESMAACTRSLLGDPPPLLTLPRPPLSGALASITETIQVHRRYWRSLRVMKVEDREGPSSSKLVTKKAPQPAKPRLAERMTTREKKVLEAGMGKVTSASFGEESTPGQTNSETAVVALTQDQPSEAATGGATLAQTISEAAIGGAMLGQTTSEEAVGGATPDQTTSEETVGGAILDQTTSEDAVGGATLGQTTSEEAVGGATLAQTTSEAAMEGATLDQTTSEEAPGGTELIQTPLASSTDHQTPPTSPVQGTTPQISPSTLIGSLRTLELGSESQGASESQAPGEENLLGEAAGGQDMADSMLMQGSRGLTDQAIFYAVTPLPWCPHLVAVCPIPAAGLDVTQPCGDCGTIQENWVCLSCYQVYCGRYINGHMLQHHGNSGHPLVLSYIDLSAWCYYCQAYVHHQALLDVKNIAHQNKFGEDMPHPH

[3] = LogD7.4 by OECD slow-stirring method with HPLC quantification; conditions: 1-octanol/PBS buffer (mutually saturated)
HDAC1 [4] = molecular target: T3, HDAC1 (Homo sapiens, UniProt Q13547); assay: In vitro HDAC inhibition preincubation assay (ZMAL substrate)
T3 sequence (Q13547 whole entry): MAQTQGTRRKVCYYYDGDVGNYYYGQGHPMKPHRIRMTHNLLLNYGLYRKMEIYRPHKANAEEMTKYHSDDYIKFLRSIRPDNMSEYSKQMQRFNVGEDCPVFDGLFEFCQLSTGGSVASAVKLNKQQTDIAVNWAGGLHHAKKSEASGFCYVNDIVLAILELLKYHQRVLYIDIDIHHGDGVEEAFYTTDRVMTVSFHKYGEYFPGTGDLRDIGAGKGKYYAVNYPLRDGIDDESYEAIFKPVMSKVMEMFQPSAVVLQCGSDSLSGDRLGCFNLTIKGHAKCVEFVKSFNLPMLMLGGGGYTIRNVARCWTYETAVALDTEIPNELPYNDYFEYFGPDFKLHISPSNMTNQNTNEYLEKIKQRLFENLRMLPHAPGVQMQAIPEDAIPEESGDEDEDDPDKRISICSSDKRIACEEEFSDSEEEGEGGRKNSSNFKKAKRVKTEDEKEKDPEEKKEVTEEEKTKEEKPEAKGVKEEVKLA

[5] = tested on: BT‐474 breast cancer cell line; assay: WST-8 cell viability assay; conditions: Homo sapiens, BT-474, 120 h, read-out: IC50 BT‐474
[6] = tested on: MCF‐7 breast cancer cell line; assay: WST-8 cell viability assay; conditions: Homo sapiens, MCF7, 120 h, read-out: IC50 MCF‐7
[7] = tested on: T‐47D breast cancer cell line; assay: WST-8 cell viability assay; conditions: Homo sapiens, T47D, 120 h, read-out: IC50 T‐47D
MCF‐7 cells = assay: Modified wound healing (migration) assay; assay type: cell-based, human; conditions: MCF-7, 10 μM, followed over 97 h, compared to DMSO control
Procedure: Migration assay. 3D printed (size: 0.5 mm gap) culture-inserts (custom made) were used for pre-
After preincubation with DMSO (1%) or HDACi (10µM) for 24 h medium was removed, wells were washed once with PBS and fresh FCS-free medium with same inhibitor added.
a Axiovert 200 microscope (Carl-Zeiss, Jena, Germany). Migration speed was quantified as reduced scratch wound over time.

[8] = tested on: acetylated α‐tubulin (HDAC6 activity) in MCF‐7 cells; assay: Western blot target engagement in MCF-7 cells: acetylated α-tubulin; assay type: cell-based, human; conditions: MCF-7 cell lysates after 24-hour treatment
HDAC2 [9] = molecular target: T1, HDAC2; assay: IC50-shift experiments (varied preincubation time); assay type: biochemical; design: purchased BPS Bioscience 50052; conditions: triplicates
Procedure: into OptiPlate-96 black micro-plates (PerkinElmer).
Afterwards, the fluorogenic substrate ZMAL
The total assay volume (50 µL,
max. […] Subsequently, 50 µL trypsin solution (0.4
enzymes and the respective inhibitor dilutions were preincubated at 20 °C for 5 to 120 minutes.
Afterwards, the assay protocol was continued as stated above. Compounds were tested in
triplicates and the assay was rerun if necessary. The respective IC50 values and P95 confidence
intervals were determined using Prism 9 for MacOS.

HDAC1 [10] = molecular target: T3, HDAC1; assay: Binding kinetics via the Progression Method; assay type: biochemical; conditions: relationship between kobs and [I]; triplicates
Procedure: (§1) To determine the binding mechanism at the respective HDAC isoform, a series of progression curves were generated, using fixed concentrations of enzyme, substrate, and different inhibitor concentrations. The in situ AMC release was monitored continuously by fluorescence readings recorded every 30 s for 60 or 90 min at 37 °C. The data of each progression curve were fitted to the appropriate equation (Prism 9.1.0 for MacOS). For inhibitors showing slow‐binding Mechanism I&II (Figure 5) time‐dependent product formation follows Eq. 1: (Eq. 1) P=vsst+vin-vss/kobs1-e^-kobst
(§2) where [P] is the amount of generated AMC, which directly correlates with the amount of deacetylated substrate over time [t]. V in and v ss are the initial and final steady‐state velocities of product formation and k obs is the apparat first‐order rate constant for the conversion from the initial velocity to the steady‐state velocity. It characterizes the formation of an enzyme–inhibitor equilibrium.
Fast‐on/fast‐off inhibitors. […] In this case Eq. 1 simplifies as follows: (Eq. 2) P=vsst
Therefore, the deacetylation rate in absence (v 0) and presence (v i) of the inhibitor is constant over time. […] [I] and [S] are the inhibitor and substrate concentrations, respectively and K m is the Michaelis‐Menten constant.
Slow‐binding inhibitors. The slow‐binding Mechanisms I & II are distinguished by their respective relationships between k obs and the inhibitor concentration. For the single‐step slow‐binding Mechanism I the relationship between inhibitor concentration and k obs is linear. The association and dissociation rate constants (k 1 & k −1, see Figure 5) can be obtained by fitting k obs as a function of [I] to Eq. 4. (Eq. 4) kobs=k-1+k11+S/KmI
The secondary association and dissociation rate constants k 2 & k −2 (see Figure 5) as well as the equilibrium dissociation constant K i,1 of the initial inhibitor‐enzyme encounter complex [EI] can be obtained by fitting k obs as a function of [I] (Eq. 5. (Eq. 5) kobs=k-2+k2/I+Ki,11+S/KmI
Determination of binding kinetics via the Progression Method.[14] HDAC1 and HDAC3
deacetylase activities were evaluated at varying inhibitor concentrations. Appropriate inhibitor
concentrations were chosen based on the previously determined IC50 values. To ensure substrate
excess during the experiment, the substrate concentration was set to five times Km. Km was
determined using a series of substrate concentrations.
For the progression curves, the
respective enzyme was incubated with the fluorogenic substrate and inhibitor in assay buffer
(§3) 90 minutes at 37°C. The relationship between AMC concentration and relative fluorescence units
(RFU) was determined and the measured RFU were transformed into the respective AMC
concentration in µM. […]

HDAC3 = HDAC3 (Homo sapiens, UniProt O15379); assay: Binding kinetics via the Progression Method; assay type: biochemical
HDAC3, sequence (O15379 whole entry): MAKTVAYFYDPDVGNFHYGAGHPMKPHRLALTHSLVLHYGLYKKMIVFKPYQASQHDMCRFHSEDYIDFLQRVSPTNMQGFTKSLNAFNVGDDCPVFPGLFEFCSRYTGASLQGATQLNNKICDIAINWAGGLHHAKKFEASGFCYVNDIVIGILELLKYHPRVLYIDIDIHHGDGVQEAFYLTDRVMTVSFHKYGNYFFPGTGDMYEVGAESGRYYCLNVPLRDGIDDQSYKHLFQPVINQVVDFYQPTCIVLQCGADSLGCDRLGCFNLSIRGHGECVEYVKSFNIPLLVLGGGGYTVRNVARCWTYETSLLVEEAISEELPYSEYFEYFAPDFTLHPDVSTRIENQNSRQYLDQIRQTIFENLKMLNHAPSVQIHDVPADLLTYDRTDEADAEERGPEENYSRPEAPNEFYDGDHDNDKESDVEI
HDAC3, sequence (Q9Y618 395-489 partner limits assumed): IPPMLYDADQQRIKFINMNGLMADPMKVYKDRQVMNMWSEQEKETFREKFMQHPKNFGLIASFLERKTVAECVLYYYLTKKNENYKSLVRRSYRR
Procedure: as §1, §2
Fast‐on/fast‐off inhibitors. […]
deacetylase activities were evaluated at varying inhibitor concentrations. […]
concentrations were chosen based on the previously determined IC50 values. […]
determined using a series of substrate concentrations. […]
as §3
(RFU) was determined and the measured RFU were transformed into the respective AMC […]

[11] = 25 °C, pH 7.4, aqueous buffer, thermodynamic from solid, pH=7.4, flask method, 25 °C, 72 h, mean ±SD, read-out: Solubility
[12] = pH 7.4, LogD7.4, slow-stirring method, 1-octanol/PBS buffer pH 7.4, 25 °C, 48 h

HDAC3/NcoR2, sequence (O15379 whole entry): as the sequence (O15379 whole entry) above
HDAC3/NcoR2, sequence (Q9Y618 395-489 partner limits assumed): as the sequence (Q9Y618 395-489 partner limits assumed) above

CC(=O)Nc1ccc(C(=O)Nc2cc(-c3cccnc3F)ccc2N)cc1 [6 h]
IC50 (HDAC3/NcoR2): 2.87 µM
solubility at 72 h [1, 11]: 1.58 ± 0.14 µg/mL (≈ 4.34 µM)
IC50 (HDAC2 [2]): 0.228 ± 0.0078 µM
IC50 (human recombinant HDAC6): > 10 µM
logD at 48 h [3, 12]: 1.79
IC50 (HDAC1 [4]): 0.153 ± 0.0221 µM

CC(=O)Nc1ccc(C(=O)Nc2cc(-c3ccnc(F)c3)ccc2N)cc1 [6 i]
IC50 (HDAC3/NcoR2): 5.87 µM
solubility at 72 h [1, 11]: 3.72 ± 0.44 µg/mL (≈ 10.2 µM)
IC50 (HDAC2 [2]): 0.211 ± 0.0054 µM
IC50 (human recombinant HDAC6): > 10 µM
logD at 48 h [3, 12]: 2.2
IC50 (HDAC1 [4]): 0.329 ± 0.0208 µM

CN(C)c1ccc(C(=O)N(CC(=O)NCc2ccccc2)Cc2ccc(C(=O)Nc3cc(-c4ccncc4)ccc3N)cc2)cc1 [10 a]
IC50 (HDAC3/NcoR2): > 6.67 µM
IC50 (HDAC2 [2]): 0.1 ± 0.0026 µM
IC50 [5]: 3.93 ± 0.56 µM
IC50 [6]: 3.24 ± 0.82 µM
IC50 [7]: 2.57 ± 0.93 µM
IC50 (HDAC1 [4]): 0.0418 ± 0.0002 µM

CN(C)c1ccc(C(=O)N(CC(=O)NC2CCCCC2)Cc2ccc(C(=O)Nc3cc(-c4ccncc4)ccc3N)cc2)cc1 [10 b]
IC50 (HDAC3/NcoR2): > 3.33 µM
solubility at 72 h [1, 11]: 1.99 ± 0.04 µg/mL (≈ 3.29 µM)
IC50 (HDAC2 [2]): 0.0855 ± 0.0116 µM
IC50 [5]: 2.93 ± 0.43 µM
IC50 (human recombinant HDAC6): > 10 µM
IC50 [6]: 4.33 ± 1.54 µM
logD at 48 h [3, 12]: 2.68
IC50 [7]: 1.45 ± 0.09 µM
IC50 (HDAC1 [4]): 0.0411 ± 0.0037 µM

CN(C)c1ccc(C(=O)N(CC(=O)NC(C)(C)C)Cc2ccc(C(=O)Nc3cc(-c4ccncc4)ccc3N)cc2)cc1 [10 c]
IC50 (HDAC3/NcoR2): 16.8 µM
solubility at 72 h [1, 11]: 7.48 ± 0.33 µg/mL (≈ 12.9 µM)
effect on cell migration (wound closure) (MCF‐7 cells): attenuated cell migration comparably and significantly
effect on cell migration (wound closure) (MCF‐7 cells; listed as LSH‐A54): attenuated cell migration significantly
IC50 (HDAC2 [2]): 0.0593 ± 0.0079 µM
acetylated α‐tubulin (western blot) [8]: non‐detectable
IC50 [5]: 2.55 ± 0.4 µM
IC50 (human recombinant HDAC6): > 10 µM
IC50 [6]: 1.62 ± 0.32 µM
logD at 48 h [3, 12]: 2.29
IC50 (HDAC2 [9]; HDAC2 IC50, preincubation 5 min, preincubation time 5 min at 20°C): 0.117 µM
IC50 (HDAC2 [9]; HDAC2 IC50, preincubation 15 min, preincubation time 15 min at 20°C): 0.106 µM
IC50 (HDAC2 [9]; HDAC2 IC50, preincubation 30 min, preincubation time 30 min at 20°C): 0.109 µM
IC50 (HDAC2 [9]; HDAC2 IC50, preincubation 60 min, preincubation time 60 min at 20°C): 0.084 µM
IC50 (HDAC2 [9]; HDAC2 IC50, preincubation 120 min, preincubation time 120 min at 20°C): 0.0781 µM
IC50 [7]: 1.58 ± 0.48 µM

CC(=O)Nc1ccc(C(=O)Nc2ccccc2N)cc1 [CI‐994, tacedinaline, reference compound]
solubility at 72 h [1, 11]: 200 ± 1.8 µg/mL (≈ 743 µM)
logD at 48 h [3, 12]: 0.84

Nc1ccccc1NC(=O)c1ccc(CNC(=O)OCc2cccnc2)cc1 [entinostat, reference compound]
effect on cell migration (wound closure) (MCF‐7 cells): no significant effect on cell migration
acetylated α‐tubulin (western blot) [8]: non‐detectable
binding mechanism at HDAC1 (HDAC1 [10]): slow-binding Mechanism II
IC50 [5]: 7.09 ± 1 µM
IC50 [6]: 8.98 ± 3 µM
IC50 [7]: 2.91 ± 0.89 µM

O=C(CCCCCCC(=O)Nc1ccccc1)NO [vorinostat, reference compound]
binding mechanism at HDAC3 (HDAC3): fast‐on/fast‐off binding kinetic
solubility at 72 h ([1]; 25 °C, pH 7.4, aqueous buffer, thermodynamic from solid, PBS buffer pH 7.4, single experiment II, read-out: Solubility (II)): 259 µg/mL (≈ 980 µM)
solubility at 72 h [1, 11]: 255 ± 3.71 µg/mL (≈ 965 µM)
solubility at 72 h ([1]; pH 7.4, PBS buffer pH 7.4, mean of two experiments (SD 0.00371), read-out: Solubility): 255 µg/mL (≈ 966 µM)
solubility at 72 h ([1]; pH 7.4, PBS buffer pH 7.4, single experiment I, read-out: Solubility (I)): 252 µg/mL (≈ 952 µM)
binding mechanism at HDAC1 (HDAC1 [10]): fast‐on/fast‐off binding kinetic
logD at 48 h [3, 12]: 0.99
logD at 48 h ([3]; pH 7.4, LogD(7.4) (I), single slow-stirring experiment I): 1.01
logD at 48 h ([3]; pH 7.4, LogD(7.4) (II), single slow-stirring experiment II): 0.962
logD at 48 h ([3]; pH 7.4, LogD(7.4) (III), single slow-stirring experiment III): 0.999
